This is an account of results in paper PMC2950867 (Journal of pharmacological and toxicological methods, 2010).

Like-named read-outs stand apart in the source and are kept apart here.

For data set [1] the following is noted: ref Horton et al., cited from earlier work; for pKa of the α-amino group: 25 °C, free amino acid.
Data set [2] concerns Caco-2 cells. It counts as cell-based, human. The settings on record: for IC50: read-out: IC50 MTT 24-hr, Caco-2 confluent monolayers, 24-hr single dosing.
The test system of data set [3] is Caco-2 cells. It is filed as cell-based, human. The following applies: read-out: IC50 TMER 24-hr; Caco-2 monolayers on PET inserts, 24-hr single dosing.

Consider `NC(=O)C[C@H](N)C(=O)O` [asparagine], for which, in data set [1], the “pKa of the α-amino group” value was 8.7. As a reminder, the IC50 is the concentration that inhibits the measured activity by half. Take `[Cl][Cd][Cl]` [cadmium chloride]: the IC50 in data set [2] came out at 109 µM; in data set [3] it was 49 µM. For `O=S(=O)([O-])[O-].[Cu+2]` [cupric sulfate], the 50% inhibitory concentration (IC50) worked out at 1570 µM in data set [2] and 1800 µM in data set [3].

On to `N[C@@H](CS)C(=O)O` [cysteine], for which the “pKa of the α-amino group” value in data set [1] was 10.7. With `NCC(=O)O` [glycine], in data set [1], the “pKa of the α-amino group” value was 9.8 and the “hydropathy (tendency to prefer a hydrophobic environment)” value is 0.16 kcal/mol.

For the molecule `[Cl][Mn][Cl]` [manganese chloride], the results for the IC50 in data set [2] and in data set [3] were 9600 µM and 3080 µM, respectively. Turning to `[Cl][Ni][Cl]` [nickel chloride], the “MTT (cell viability)” value in data set [2] (24-hr single exposure at the 24-hr TMER IC50 concentration) was 16% of control. The IC50 in data set [2] is 968 µM; in data set [3] it was 8400 µM. In the case of `N[C@@H](Cc1ccc(O)cc1)C(=O)O` [tyrosine], the “hydropathy (tendency to prefer a hydrophobic environment)” value in data set [1] was 0.019 kcal/mol. Consider mercury chloride, for which the IC50 in data set [3] was found to be 90 µM.
